This passage reports EC50 results from patent publication US20240199676A1, “ANTIVIRAL COMPOUNDS AND METHODS OF MAKING AND USING THE SAME” (Gilead Sciences, Inc., priority 2022, published 2024).

Where two headings read alike, the source gives them in different places. Some results are limits rather than exact numbers.

Holding throughout (format): cell-based
Experiment [1] deals with Human Rhinovirus 14 (HRV14) in H1-HeLa cells. In words: H1-HeLa HRV-CTG 384-well Assay (Ex. Y), HRV14. The conditions noted are these: Rhinovirus B, 96 h, read-out: EC50 H1-HeLa_HRV14_HRV-CTG 384-well Assay (per Ex Y). From the text: (§1) Example Y: H1-HeLa HRV-CTG 384-well Assay
(§2) H1-Hela cell line (ATCC, Manassas, VA, Cat #CRL-1958) was maintained in Dulbecco's […] (DMEM) (Corning, New York, NY, Cat #15-018CM) supplemented with 10% fetal bovine serum (FBS) (Hyclone, Logan, UT, Cat #SH30071-03), and 1× Penicillin-Streptomycin-L-Glutamine (Corning, New York, NY, Cat #30-009-CI). Cells were passaged 2 times per week to maintain sub-confluent densities and were used for experiments at passage 5-30. The Human Rhinovirus 1B (HRV1B) (ATCC, Manassas, VA, Cat #VR-1645) , Human Rhinovirus 14 (HRV14) (ATCC, Manassas, VA, Cat #VR-284), and Human Rhinovirus 16 (HRV16) (ATCC, Manassas, VA, Cat #BR-283) was obtained through ATCC. Viral infection was monitored by determining viability of H1-HeLa cells as described below.
(§3) Test molecules are prepared in 100% DMSO in 384-well polypropylene plates (Greiner, Monroe, NC, Cat #784201) with 8 compounds per plate in grouped replicates of 4 at 10 serially diluted concentrations (1:3). The serially diluted compounds were transferred to low dead volume Echo plates (Labcyte, Sunnyvale, CA, Cat #LP-0200).
(§4) The test compounds were spotted to 384-well assay plates (Greiner, Monroe, NC, Cat#781091) at 200 nL per well using an Echo acoustic dispenser (Labcyte, Sunnyvale, CA). H1-HeLa cells were harvested and suspended in DMEM (supplemented with 2% FBS and 1× Penicillin-Streptomycin-L-Glutamine) and seeded to the pre-spotted assay plates at 5,000 cells per well in 30 μL. HRV1B, HRV14, and HRV16 was diluted in DMEM (supplemented with 2% FBS and 1× Penicillin-Streptomycin-L-Glutamine) at 97.1 million Infectious Units (IU) per mL, 151 million IU per mL and 221 million IU per mL respectively. 10 μL of virus per well was added to the assay plates containing cells and compounds, for an MOI of 0.5, 1.0, and 0.25 respectively. The assay plates were incubated for 4 days at 37° C. and 5% CO2. At the end of incubation, Celltiter-Glo (Promega, Madison, WI, Cat #(Ga7573) was prepared. The assay plates and Celltiter-Glo reagent were equilibrated to room temperature for at least 15 minutes. 40 μL per well of Celltiter-Glo reagent was added and the plates were incubated at room temperature for 15 minutes before reading the luminescence signal on an EnVision multimode plate reader (Perkin Elmer, Waltham, MA). Rupintrivir was used as positive control and DMSO was used as negative control. Values were normalized to the positive and negative controls (as 0% and 100% replication, respectively) and data was fitted using non-linear regression analysis by Gilead's dose response tool. The EC50 value for each compound was defined as the concentration reducing viral replication by 50%.

Experiment [2] relates to Human Rhinovirus 1B (HRV1B) in H1-HeLa cells. In words: H1-HeLa HRV-CTG 384-well Assay (Ex. Y), HRV1B. To be noted: Rhinovirus A, 96 h, read-out: EC50 H1-HeLa_HRV1B_HRV-CTG 384-well Assay (per Ex. Y).
Source text: as §1, §2, §3, §4

Experiment [3] concerns Respiratory syncytial virus recombinant with luciferase (RSV-Luc5) in HEp-2 cells. In words: HEp-2 RSV-Luc5 384-well Assay (EC50 RSVFLUC Hep2-384 v2, Ex. V). To be noted: human respiratory syncytial virus, HEp-2, 72 h, read-out: EC50 RSV FLuc Hep-2 384 V2 (per Ex. V). The essentials:
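HEp-2 cells (4,000/well) with 10-point 1:3 compound dilutions were infected with RSV-Luc5 at MOI 0.5 and incubated 3 days at 37 °C. Replication was read by One-Glo luminescence and normalized to remdesivir (0%) and DMSO (100%) controls. EC50 is the concentration reducing replication by 50%, from non-linear regression.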

Experiment [4] relates to Human Rhinovirus 16 (HRV16) in H1-HeLa cells. In words: H1-HeLa HRV-CTG 384-well Assay (Ex. Y), HRV16. The conditions noted are these: Rhinovirus A, 96 h, read-out: EC50 H1-HeLa_HRV16_HRV-CTG 384-well Assay (per Ex. Y).
Source text: as §1, §2, §3, §4

Setting [5] is: H1-HeLa cells, HRV14 MOI 1.0, 4 days, Celltiter-Glo.
[6] abbreviates: H1-HeLa cells, HRV1B MOI 0.5, 4 days, Celltiter-Glo.
[7] abbreviates: H1-HeLa cells, HRV16 MOI 0.25, 4 days, Celltiter-Glo.

As to `N#C[C@]1(COC(=O)[C@H]2CCC(=O)O2)O[C@@H](c2ccc3c(N)ncnn23)[C@H](O)[C@@H]1O` [Compound 25, ((2R,3S,4R,5S)-5-(4-aminopyrrolo[2,1-f][1,2,4]triazin-7-yl)-2-cyano-3,4-dihydroxytetrahydrofuran-2-yl)methyl (R)-5-oxotetrahydrofuran-2-carboxylate], the EC50 – broadly, the concentration giving half of the maximal effect – in experiment [1] (setting [5]) came to 6.01 µM; in experiment [2] (setting [6]) it was 3.13 µM; in experiment [3], 10.3 µM; in experiment [4] (setting [7]) it was 8.31 µM.

On to `CC(C)(C)CC(=O)Nc1ncnn2c([C@@H]3O[C@](C#N)(COC(=O)CC(C)(C)C)[C@@H](O)[C@H]3O)ccc12` [Compound 26, ((2R,3S,4R,5S)-2-cyano-5-(4-(3,3-dimethylbutanamido)pyrrolo[2,1-f][1,2,4]triazin-7-yl)-3,4-dihydroxytetrahydrofuran-2-yl)methyl 3,3-dimethylbutanoate], for which the EC50 in experiment [1] (setting [5]) came to 50 µM; in experiment [2] (setting [6]) it was 50 µM; in experiment [3], 46.8 µM; in experiment [4] (setting [7]) it was 50 µM.

Take `CCC(C)(C)CC(=O)OC[C@@]1(C#N)O[C@@H](c2ccc3c(N)ncnn23)[C@H](O)[C@@H]1O` [Compound 27, ((2R,3S,4R,5S)-5-(4-aminopyrrolo[2,1-f][1,2,4]triazin-7-yl)-2-cyano-3,4-dihydroxytetrahydrofuran-2-yl)methyl 3,3-dimethylpentanoate]: the EC50 in experiment [1] (setting [5]) stood at 50 µM; in experiment [2] (setting [6]), 50 µM; in experiment [3], 12.3 µM; in experiment [4] (setting [7]) it was 50 µM.

On to `CC(=O)OC[C@@]1(C#N)O[C@@H](c2ccc3c(N)ncnn23)[C@H](OC(C)=O)[C@@H]1OC(C)=O` [Compound 28, (2R,3S,4S,5S)-2-(acetoxymethyl)-5-(4-aminopyrrolo[2,1-f][1,2,4]triazin-7-yl)-2-cyanotetrahydrofuran-3,4-diyl diacetate], for which the EC50 was 19.8 µM in experiment [1] (setting [5]), 9.45 µM in experiment [2] (setting [6]), 15.9 µM in experiment [3] and 23.9 µM in experiment [4] (setting [7]).

Turning to `CC(C)(CF)C(=O)OC[C@@]1(C#N)O[C@@H](c2ccc3c(N)ncnn23)[C@H](O)[C@@H]1O` [Compound 29, ((2R,3S,4R,5S)-5-(4-aminopyrrolo[2,1-f][1,2,4]triazin-7-yl)-2-cyano-3,4-dihydroxytetrahydrofuran-2-yl)methyl 3-fluoro-2,2-dimethylpropanoate], the EC50 in experiment [1] (setting [5]) was found to be 16.9 µM; in experiment [2] (setting [6]), 9.37 µM; in experiment [3] it was 28.8 µM; in experiment [4] (setting [7]) it was 22.7 µM.

With `CC(C)C(=O)Nc1ncnn2c([C@@H]3O[C@](C#N)(CO)[C@@H](O)[C@H]3O)ccc12` [Compound 30, N-(7-((2S,3R,4S,5R)-5-cyano-3,4-dihydroxy-5-(hydroxymethyl)tetrahydrofuran-2-yl)pyrrolo[2,1-f][1,2,4]triazin-4-yl)isobutyramide], the EC50 in experiment [1] (setting [5]) is 36.2 µM; in experiment [2] (setting [6]) it was 27.5 µM; in experiment [3], greater than 50 µM; in experiment [4] (setting [7]), 50 µM.

As to `N#C[C@]1(COC(=O)C2CC3(CCC3)C2)O[C@@H](c2ccc3c(N)ncnn23)[C@H](O)[C@@H]1O` [Compound 32, ((2R,3S,4R,5S)-5-(4-aminopyrrolo[2,1-f][1,2,4]triazin-7-yl)-2-cyano-3,4-dihydroxytetrahydrofuran-2-yl)methyl spiro[3.3]heptane-2-carboxylate], the EC50 in experiment [1] (setting [5]) turned out to be 5.14 µM; in experiment [2] (setting [6]), 3.18 µM; in experiment [3], 16.4 µM; in experiment [4] (setting [7]) it was 4.56 µM.

As to `CC1(CC(=O)OC[C@@]2(C#N)O[C@@H](c3ccc4c(N)ncnn34)[C@H](O)[C@@H]2O)CCC1` [Compound 33, ((2R,3S,4R,5S)-5-(4-aminopyrrolo[2,1-f][1,2,4]triazin-7-yl)-2-cyano-3,4-dihydroxytetrahydrofuran-2-yl)methyl 2-(1-methylcyclobutyl)acetate], the EC50 in experiment [1] (setting [5]) was found to be 20.8 µM; in experiment [2] (setting [6]), 35.1 µM; in experiment [3], 23.4 µM; in experiment [4] (setting [7]) it was 50 µM.

Take `[H]/N=c1/c2ccc([C@@H]3O[C@](C#N)(CO)[C@@H](O)[C@H]3O)n2ncn1COC(=O)C(C)C` [Compound 34, (7-((2S,3R,4S,5R)-5-cyano-3,4-dihydroxy-5-(hydroxymethyl)tetrahydrofuran-2-yl)-4-iminopyrrolo[2,1-f][1,2,4]triazin-3(4H)-yl)methyl isobutyrate]: the EC50 was 50 µM in experiment [1] (setting [5]), 28.7 µM in experiment [2] (setting [6]), greater than 50 µM in experiment [3] and 50 µM in experiment [4] (setting [7]).

Consider `CCC(C)(C)C(=O)OC[C@@]1(C#N)O[C@@H](c2ccc3c(N)ncnn23)[C@H](O)[C@@H]1O` [Compound 35, ((2R,3S,4R,5S)-5-(4-aminopyrrolo[2,1-f][1,2,4]triazin-7-yl)-2-cyano-3,4-dihydroxytetrahydrofuran-2-yl)methyl 2,2-dimethylbutanoate], for which the EC50 in experiment [1] (setting [5]) was 24.6 µM; in experiment [2] (setting [6]), 19.2 µM; in experiment [3], 24.4 µM; in experiment [4] (setting [7]) it was 48.2 µM.

For `CC(C)(C)CCC(=O)OC[C@@]1(C#N)O[C@@H](c2ccc3c(N)ncnn23)[C@H](O)[C@@H]1O` [Compound 36, ((2R,3S,4R,5S)-5-(4-aminopyrrolo[2,1-f][1,2,4]triazin-7-yl)-2-cyano-3,4-dihydroxytetrahydrofuran-2-yl)methyl 4,4-dimethylpentanoate], the EC50 in experiment [1] (setting [5]) came out at 6.51 µM; in experiment [2] (setting [6]) it was 3.1 µM; in experiment [3], 11.8 µM; in experiment [4] (setting [7]), 8.03 µM.

Take `CC[C@@H](C)C(=O)OC[C@@]1(C#N)O[C@@H](c2ccc3c(N)ncnn23)[C@H](O)[C@@H]1O` [Compound 37, ((2R,3S,4R,5S)-5-(4-aminopyrrolo[2,1-f][1,2,4]triazin-7-yl)-2-cyano-3,4-dihydroxytetrahydrofuran-2-yl)methyl (R)-2-methylbutanoate]: the EC50 in experiment [1] (setting [5]) stood at 11.9 µM; in experiment [2] (setting [6]), 5.71 µM; in experiment [3], 14.8 µM; in experiment [4] (setting [7]), 9.78 µM.

Regarding `N#C[C@]1(COC(=O)Cc2ccccc2)O[C@@H](c2ccc3c(N)ncnn23)[C@H](O)[C@@H]1O` [Compound 38, ((2R,3S,4R,5S)-5-(4-aminopyrrolo[2,1-f][1,2,4]triazin-7-yl)-2-cyano-3,4-dihydroxytetrahydrofuran-2-yl)methyl 2-phenylacetate], the EC50 in experiment [1] (HRV14, H1-HeLa) was found to be 6.25 µM; in experiment [2] (HRV1B, H1-HeLa), 3.12 µM; in experiment [3], 18.9 µM; in experiment [4] (HRV16, H1-HeLa), 8.44 µM.
